Values quoted from earlier work as cited in US20090155355A1, “Particles in a capsule” (Multi Formulations Ltd., priority 2007, published 2009).
Entries after “also recorded” stand apart in the source; their conditions may differ. Blank lines part the entries; values can stand above or below the compound they belong to.

Tests used:
[1] = in vivo
[2] = oral, single 400 mg dose, humans
[3] = combination with acetaminophen or ibuprofen

plasma half-life [1]: about 2 hrs
time of peak plasma levels [1]: 0.5 to 2 h
Compound: CC(=O)Nc1ccc(O)cc1 [Acetaminophen]

time to maximum plasma concentration [2]: about 1.3 hrs
Compound: CC(C)Cc1ccc(C(C)C(=O)O)cc1 (stereo not drawn) [ibuprofen, Ibuprofen]

Compound: Cn1c(=O)c2c(ncn2C)n(C)c1=O [caffeine, Caffeine]
half-life (mean time) (highly variable): about 5 hrs
time to peak levels (in vivo): about 1 hr
effect on analgesics [3]: enhance and prolong the effects of acetaminophen; also recorded: enhance the analgesic effects of ibuprofen
